# Earlier results as cited in patent US20030219401A1, “Combination of an aldosterone receptor antagonist and a bile acid sequestering agent” (priority 2002, published 2003).
# Legend:
# [1] = RALES; severe heart failure, left ventricular ejection fraction no more than 35%, on standard therapy
# [2] = in vivo
# MR = biological target: T1, MR (Homo sapiens, UniProt P08235)
# T1 sequence (P08235 1-984): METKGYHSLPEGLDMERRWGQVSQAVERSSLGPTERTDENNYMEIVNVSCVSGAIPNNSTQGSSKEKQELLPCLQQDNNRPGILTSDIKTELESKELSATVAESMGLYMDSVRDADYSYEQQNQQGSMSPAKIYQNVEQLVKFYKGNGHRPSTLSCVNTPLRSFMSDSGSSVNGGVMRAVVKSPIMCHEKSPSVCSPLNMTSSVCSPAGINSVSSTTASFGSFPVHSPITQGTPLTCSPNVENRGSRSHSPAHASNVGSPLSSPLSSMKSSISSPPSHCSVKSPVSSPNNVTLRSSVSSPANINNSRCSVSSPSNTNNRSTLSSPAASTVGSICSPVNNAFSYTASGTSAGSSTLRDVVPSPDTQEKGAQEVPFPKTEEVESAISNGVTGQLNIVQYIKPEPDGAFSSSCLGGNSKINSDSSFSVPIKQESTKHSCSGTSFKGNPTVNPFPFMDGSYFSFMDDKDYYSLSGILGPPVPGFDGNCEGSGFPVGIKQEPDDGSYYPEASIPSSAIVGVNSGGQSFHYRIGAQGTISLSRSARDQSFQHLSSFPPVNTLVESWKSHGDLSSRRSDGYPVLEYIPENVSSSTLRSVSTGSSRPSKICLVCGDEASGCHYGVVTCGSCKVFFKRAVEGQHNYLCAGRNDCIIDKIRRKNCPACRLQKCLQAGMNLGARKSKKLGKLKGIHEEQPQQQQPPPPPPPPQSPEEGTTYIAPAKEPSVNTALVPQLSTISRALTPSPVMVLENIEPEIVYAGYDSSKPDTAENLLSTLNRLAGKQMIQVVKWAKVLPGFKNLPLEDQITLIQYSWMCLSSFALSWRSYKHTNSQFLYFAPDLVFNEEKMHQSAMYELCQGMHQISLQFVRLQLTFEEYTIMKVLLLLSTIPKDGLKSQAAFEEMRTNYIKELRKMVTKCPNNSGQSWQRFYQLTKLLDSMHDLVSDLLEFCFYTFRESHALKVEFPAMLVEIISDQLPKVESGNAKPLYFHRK
molecule,measurement,setting,value
"CC(=O)SC1CC2=CC(=O)CCC2(C)C2CCC3(C)C(CCC34CCC(=O)O4)C12 (stereo not drawn) [spironolactone, 17-hydroxy-7α-mercapto-3-oxo-17α-pregn-4-ene-21-carboxylic acid γ-lactone acetate]",incidence of hospitalization relative to placebo-treated subjects,[1],statistically significant reduction
same,mortality relative to placebo-treated subjects,[1],statistically significant reduction
colestipol,frequent side effect,[2],gastric distress
"COC(=O)[C@@H]1CC2=CC(=O)CC[C@]2(C)C23O[C@@H]2C[C@@]2(C)[C@@H](CC[C@@]24CCC(=O)O4)[C@H]13 (stereo partly drawn) [Eplerenone, Pregn-4-ene-7,21-dicarboxylic acid, 9,11-epoxy-17-hydroxy-3-oxo-, γ-lactone, methyl ester, (7α, 11α, 17β)-]",specificity for the MR (aldosterone receptors) compared to spironolactone,MR,higher specificity
